Drawing on ChEMBL document CHEMBL3882725, “Indazole derivatives as JNK inhibitors and compositions and methods related thereto” (2002), this text covers IC50 for 86 compounds.

Structures are written as SMILES. Where only a bound is given, the exact number is not on record here.

Chain of Mitogen-activated protein kinase 9 (P45984 whole entry, the tested form may be a part): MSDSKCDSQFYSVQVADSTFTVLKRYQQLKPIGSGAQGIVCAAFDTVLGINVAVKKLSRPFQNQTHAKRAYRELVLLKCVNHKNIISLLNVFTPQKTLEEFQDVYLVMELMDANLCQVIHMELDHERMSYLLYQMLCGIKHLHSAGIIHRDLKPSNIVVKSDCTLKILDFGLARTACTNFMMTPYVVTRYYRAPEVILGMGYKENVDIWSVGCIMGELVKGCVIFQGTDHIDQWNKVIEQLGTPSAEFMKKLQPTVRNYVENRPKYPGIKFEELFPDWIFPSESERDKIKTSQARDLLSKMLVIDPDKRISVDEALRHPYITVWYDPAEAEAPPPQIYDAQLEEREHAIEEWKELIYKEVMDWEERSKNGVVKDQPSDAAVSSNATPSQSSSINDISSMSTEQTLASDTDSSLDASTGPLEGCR

The experiment concerns the target Mitogen-activated protein kinase 9 (Homo sapiens, UniProt P45984). The experiment can be described thus: Inhibition of His6-tagged JNK2 (unknown origin) assessed as reduction in c-Jun phosphorylation using GST-c-Jun (1 to 79 residues) and [gamma32P]ATP incubated for 1 hr by scintillation counting assay.
By IC50 is commonly meant the midpoint of a concentration-inhibition curve. For `CN(C)CC(=O)Nc1cccc(-c2n[nH]c3ccc(C(N)=O)cc23)c1`, the half-inhibitory concentration (IC50) is 1 to 10 µM.
As to `Nc1nnc(-c2ccc3[nH]nc(-c4ccc(F)cc4)c3c2)[nH]1`, the IC50 lay in the range of 1 to 10 µM.
With `O=C(CC1CCCCC1)Nc1cccc(-c2n[nH]c3ccc(-c4nc[nH]n4)cc23)c1`, the half-inhibitory concentration (IC50) fell in the range of 0.5 to 10 µM.
With `c1cc(OCCN2CCNCC2)cc(-c2n[nH]c3ccc(-c4ncn[nH]4)cc23)c1` the figure was 1 to 10 µM; with `CN(C)CCNC(=O)c1ccc2[nH]nc(-c3cc4ccccc4o3)c2c1`, 1 to 10 µM; with `O=C1CCCN1CCOc1cccc(-c2n[nH]c3ccc(-c4ncn[nH]4)cc23)c1`, 1 to 10 µM.
The figure for `CC(C)(C)CC(=O)Nc1cccc(-c2n[nH]c3ccc(-c4nc[nH]n4)cc23)c1` is 0.5 to 10 µM.
As for `CN(C)CCNC(=O)c1cccc(-c2n[nH]c3ccc(-c4ncn[nH]4)cc23)c1`, the IC50 was 0.5 to 10 µM.
For `O=C(N[C@H]1CCc2ccccc21)c1cccc(-c2n[nH]c3ccc(-c4ncn[nH]4)cc23)c1`, the IC50 lay within 0.5 to 10 µM.
In the case of `CN(C)CCOc1cccc(-c2n[nH]c3ccc(-c4nnn[nH]4)cc23)c1`, the IC50 was 1 to 10 µM.
The figure for `c1cc(OCCN2CCOCC2)cc(-c2n[nH]c3ccc(-c4ncn[nH]4)cc23)c1` is 1 to 10 µM; for `NC(=O)c1ccc2[nH]nc(-c3cccc(N)c3)c2c1` it is 1 to 10 µM.
For the compound `O=C(Nc1cccc(-c2n[nH]c3ccc(-c4nc[nH]n4)cc23)c1)c1ccc(Cl)nc1`, the IC50 was 1 to 10 µM.
The figure for `NC(=O)c1ccc2[nH]nc(-c3cccc(NC(=O)c4ccco4)c3)c2c1` is 0.5 to 10 µM; for `O=C(O)CCc1nnc(-c2ccc3[nH]nc(-c4ccc(F)cc4)c3c2)[nH]1` it is 1 to 10 µM; for `O=C(Nc1cccc(-c2n[nH]c3ccc(-c4nc[nH]n4)cc23)c1)[C@@H](O)c1ccccc1` it is 0.5 to 10 µM.
With `O=C(Nc1cccc(-c2n[nH]c3ccc(-c4nc[nH]n4)cc23)c1)C1CCCC1` the figure was 1 to 10 µM; with `CN1CCN(C(=O)c2cccc(-c3n[nH]c4ccc(-c5ncn[nH]5)cc34)c2)CC1`, at most 10 µM; with `O=C(Nc1ccc(-c2n[nH]c3ccc(-c4ncn[nH]4)cc23)cc1)c1ccco1`, 1 to 10 µM.
Consider `NC(=O)c1ccc2[nH]nc(-c3cccc(NC(=O)CCN4CCCCC4)c3)c2c1`, for which the IC50 was in the range of 1 to 10 µM.
For the compound `CC(=O)O[C@@H](C)C(=O)Nc1cccc(-c2n[nH]c3ccc(-c4nn[nH]n4)cc23)c1`, the IC50 lay within 0.5 to 10 µM.
The figure for `CN(C)CCc1nc(-c2ccc3[nH]nc(-c4ccc(F)cc4)c3c2)n[nH]1` is 1 to 10 µM.
With `CC(O)C(=O)Nc1cccc(-c2n[nH]c3ccc(-c4nc[nH]n4)cc23)c1` (stereo unspecified) the figure was 0.5 to 10 µM; with `CC(=O)N1CCN(Cc2nnc(-c3ccc4[nH]nc(-c5ccc(F)cc5)c4c3)[nH]2)CC1`, 1 to 10 µM; with `Fc1ccc(-c2n[nH]c3ccc(-c4n[nH]c(CN5CCCCC5)n4)cc23)cc1`, 1 to 10 µM.
In the case of `O=C(NCc1ccccc1)c1cccc(-c2n[nH]c3ccc(-c4ncn[nH]4)cc23)c1`, the 50% inhibitory concentration (IC50) is 0.5 to 10 µM.
The figure for `O=C(N[C@@H]1CCc2ccccc21)c1cccc(-c2n[nH]c3ccc(-c4ncn[nH]4)cc23)c1` is 0.5 to 10 µM; for `O=C(CCN1CCCCC1)Nc1cccc(-c2n[nH]c3ccc(-c4nc[nH]n4)cc23)c1` it is 1 to 10 µM.
Regarding `C[C@H](O)C(=O)Nc1cccc(-c2n[nH]c3ccc(-c4nn[nH]n4)cc23)c1`, the 50% inhibitory concentration (IC50) fell in the range of 0.5 to 10 µM.
As to `CCN(CC)Cc1nc(-c2ccc3[nH]nc(-c4ccc(F)cc4)c3c2)n[nH]1`, the IC50 was in the range of 1 to 10 µM.
The figure for `O=C(NCCOc1cccc(-c2n[nH]c3ccc(-c4ncn[nH]4)cc23)c1)OCc1ccccc1` is 1 to 10 µM; for `O=C(N[C@@H]1c2ccccc2C[C@@H]1O)c1cccc(-c2n[nH]c3ccc(-c4ncn[nH]4)cc23)c1` it is 1 to 10 µM; for `O=C(Nc1cccc(-c2n[nH]c3ccc(-c4nc[nH]n4)cc23)c1)c1ccccn1` it is 0.5 to 10 µM.
With `O=C(N[C@H]1c2ccccc2C[C@H]1O)c1cccc(-c2n[nH]c3ccc(-c4ncn[nH]4)cc23)c1` the figure was 1 to 10 µM; with `NC(=O)c1ccc2[nH]nc(-c3cccc(NC(=O)C4CCNCC4)c3)c2c1`, 1 to 10 µM.
Take `CCCCC(=O)Nc1cccc(-c2n[nH]c3ccc(-c4nc[nH]n4)cc23)c1`: the IC50 fell in the range of 0.5 to 10 µM.
As for `O=C(NC1Cc2ccccc2C1)c1cccc(-c2n[nH]c3ccc(-c4ncn[nH]4)cc23)c1`, the IC50 lay in the range of 0.5 to 10 µM.
With `CC(=O)N1CCN(CCOc2cccc(-c3n[nH]c4ccc(-c5ncn[nH]5)cc34)c2)CC1` the figure was 1 to 10 µM; with `CC(C)(C)CNC(=O)c1cccc(-c2n[nH]c3ccc(-c4ncn[nH]4)cc23)c1`, 1 to 10 µM; with `COCC(=O)Nc1cccc(-c2n[nH]c3ccc(C(N)=O)cc23)c1`, 1 to 10 µM.
Regarding `NCCOc1cccc(-c2n[nH]c3ccc(-c4ncn[nH]4)cc23)c1`, the IC50 is at most 10 µM.
In the case of `CN(C)CCCOc1ccc(-c2n[nH]c3ccc(-c4nnn[nH]4)cc23)cc1`, the IC50 was in the range of 0.5 to 10 µM.
As to `CN(C)CCCNC(=O)c1ccc2[nH]nc(-c3cc4ccccc4o3)c2c1`, the IC50 lay within 1 to 10 µM.
With `O=C(/C=C/c1ccccc1)Nc1cccc(-c2n[nH]c3ccc(-c4nc[nH]n4)cc23)c1` the figure was 1 to 10 µM; with `CN(C)CCCOc1cccc(-c2n[nH]c3ccc(-c4nnn[nH]4)cc23)c1`, 0.5 to 10 µM; with `CC(C)CNC(=O)c1ccc2[nH]nc(-c3cc4ccccc4o3)c2c1`, 1 to 10 µM.
With `O=C(Nc1cccc(-c2n[nH]c3ccc(-c4nc[nH]n4)cc23)c1)C(=O)c1ccco1` the figure was 1 to 10 µM.
The figure for `O=C(NCc1ccc(F)cc1)c1cccc(-c2n[nH]c3ccc(-c4ncn[nH]4)cc23)c1` is 0.5 to 10 µM; for `C[C@H](NC(=O)c1cccc(-c2n[nH]c3ccc(-c4ncn[nH]4)cc23)c1)c1ccccc1` it is 1 to 10 µM.
For the compound `O=C(NCC1CC1)c1cccc(-c2n[nH]c3ccc(-c4ncn[nH]4)cc23)c1`, the IC50 fell in the range of 0.5 to 10 µM.
With `C[C@@H](NC(=O)c1cccc(-c2n[nH]c3ccc(-c4ncn[nH]4)cc23)c1)c1ccccc1` the figure was 0.5 to 10 µM; with `O=C(Nc1cccc(-c2n[nH]c3ccc(-c4nc[nH]n4)cc23)c1)C1CC1`, 1 to 10 µM; with `O=C(Nc1cccc(-c2n[nH]c3ccc(-c4nc[nH]n4)cc23)c1)c1ccoc1`, 0.5 to 10 µM.
Take `O=C(Nc1cccc(-c2n[nH]c3ccc(-c4nc[nH]n4)cc23)c1)C(=O)c1c[nH]c2ccccc12`: the IC50 is 1 to 10 µM.
For `CCCC(=O)Nc1cccc(-c2n[nH]c3ccc(-c4nc[nH]n4)cc23)c1`, the IC50 fell in the range of 0.5 to 10 µM.
The figure for `c1cc(OCCN2CCCC2)cc(-c2n[nH]c3ccc(-c4ncn[nH]4)cc23)c1` is 1 to 10 µM.
The figure for `c1cc(OCCCN2CCCCC2)cc(-c2n[nH]c3ccc(-c4ncn[nH]4)cc23)c1` is 0.5 to 10 µM.
On to `CN(C)CC(=O)Nc1cccc(-c2n[nH]c3ccc(-c4nc[nH]n4)cc23)c1`, for which the IC50 is 0.5 to 10 µM.
`O=C(Nc1cccc(-c2n[nH]c3ccc(-c4nn[nH]n4)cc23)c1)c1cccnc1`: the IC50 was 0.5 to 10 µM.
The figure for `NC(=O)c1ccc2[nH]nc(-c3cccc(NC(=O)c4cccnc4)c3)c2c1` is 1 to 10 µM; for `O=C(Nc1cccc(-c2n[nH]c3ccc(-c4nc[nH]n4)cc23)c1)C(=O)c1ccccc1` it is 1 to 10 µM; for `Fc1ccc(-c2n[nH]c3ccc(-c4n[nH]c(CN5CCOCC5)n4)cc23)cc1` it is 1 to 10 µM.
As to `COCCNc1cccc(-c2n[nH]c3ccc(C(N)=O)cc23)c1`, the IC50 lay in the range of 1 to 10 µM.
Consider `CN(C)CCOc1cccc(-c2n[nH]c3ccc(-c4ncn[nH]4)cc23)c1`, for which the IC50 lay within 1 to 10 µM.
As to `O=C(Cc1ccc(F)cc1)Nc1cccc(-c2n[nH]c3ccc(-c4nc[nH]n4)cc23)c1`, the half-maximal inhibitory concentration (IC50) was 0.5 to 10 µM.
The figure for `O=C(O)C(=O)Nc1cccc(-c2n[nH]c3ccc(-c4nc[nH]n4)cc23)c1` is 0.5 to 10 µM.
The figure for `CN(C)CCCOc1cccc(-c2n[nH]c3ccc(-c4ncn[nH]4)cc23)c1` is 1 to 10 µM; for `c1cc(OCCN2CCCCCC2)cc(-c2n[nH]c3ccc(-c4ncn[nH]4)cc23)c1` it is 1 to 10 µM; for `CNC(=O)c1ccc2[nH]nc(-c3cc4ccccc4o3)c2c1` it is 1 to 10 µM.
With `O=C(Nc1cccc(-c2n[nH]c3ccc(-c4nc[nH]n4)cc23)c1)c1cc2ccccc2s1` the figure was 1 to 10 µM.
As for `Cc1ccc2[nH]nc(-c3ccc(F)cc3)c2c1`, the half-inhibitory concentration (IC50) was at most 10 µM.
The figure for `COCCNC(=O)c1ccc2[nH]nc(-c3cc4ccccc4o3)c2c1` is 1 to 10 µM; for `O=C(Nc1cccc(-c2n[nH]c3ccc(-c4nc[nH]n4)cc23)c1)c1ccno1` it is 0.5 to 10 µM; for `CC(=O)O[C@@H](C)C(=O)Nc1cccc(-c2n[nH]c3ccc(C(N)=O)cc23)c1` it is 0.5 to 10 µM.
With `O=C(Nc1cccc(-c2n[nH]c3ccc(-c4nc[nH]n4)cc23)c1)[C@H](O)c1ccccc1` the figure was 0.5 to 10 µM.
On to `CC(C)NC(=O)c1ccc2[nH]nc(-c3cc4ccccc4o3)c2c1`, for which the 50% inhibitory concentration (IC50) lay within 1 to 10 µM.
Regarding `O=C(NCc1cccnc1)c1cccc(-c2n[nH]c3ccc(-c4ncn[nH]4)cc23)c1`, the half-inhibitory concentration (IC50) was in the range of 0.5 to 10 µM.
The figure for `CN(C)Cc1nnc(-c2ccc3[nH]nc(-c4ccc(F)cc4)c3c2)[nH]1` is 0.5 to 10 µM; for `OC1CCN(Cc2nnc(-c3ccc4[nH]nc(-c5ccc(F)cc5)c4c3)[nH]2)CC1` it is 1 to 10 µM; for `CC(Oc1ccccc1)C(=O)Nc1cccc(-c2n[nH]c3ccc(-c4nc[nH]n4)cc23)c1` (stereo unspecified) it is 0.5 to 10 µM.
With `CC(=O)NCCOc1cccc(-c2n[nH]c3ccc(-c4ncn[nH]4)cc23)c1` the figure was 1 to 10 µM.
For the compound `CC(C)(C)NC(=O)c1cccc(-c2n[nH]c3ccc(-c4ncn[nH]4)cc23)c1`, the IC50 is 0.5 to 10 µM.
On to `O=C(Nc1cccc(-c2n[nH]c3ccc(-c4nc[nH]n4)cc23)c1)C(O)c1ccccc1` (stereo unspecified), for which the half-maximal inhibitory concentration (IC50) was in the range of 0.5 to 10 µM.
`Clc1ccccc1-c1n[nH]c2ccc(-c3ncn[nH]3)cc12`: the IC50 was 1 to 10 µM.
Consider `O=C(CCc1ccccc1)Nc1cccc(-c2n[nH]c3ccc(-c4nc[nH]n4)cc23)c1`, for which the half-inhibitory concentration (IC50) lay within 0.5 to 10 µM.
In the case of `CC(C)(NC(=O)c1cccc(-c2n[nH]c3ccc(-c4ncn[nH]4)cc23)c1)c1ccccc1`, the IC50 was in the range of 0.5 to 10 µM.
